This is an account of results in patent publication US4438120A, “Pyridoindolobenzodiazepine tranquilizers” (E. I. Du Pont de Nemours & Company, priority 1982, dated 1984).

A value given as a limit tells only on which side of the number the result lay.

The assay deals with Conditioned Avoidance Response (CAR). The assay can be described thus: Conditioned Avoidance Response (CAR) test in mice, oral. Particulars: female white mice, moving average method. In kind it is in vivo, mouse (female white mice).

Method: The paradigm used for predicting tranquilizer activity was a Conditioned Avoidance Response (CAR) test in mice. Female white mice, 19-23 g, were used. The apparatus modified from Bovet, D. et al., Science, 163, 139-149 (1969), was a one-way shuttlebox with 0.4 mA scrambled electric footshock as unconditioned stimulus (US) and a 6 watt white light plus a relay buzzer as conditioned stimuli (CS). Mice were conditioned by three sets of 1-5 trials on day 1, then were fasted for 17-21 hours. The conditioned mice were tested for retention of the conditioned response on day 2, and then were dosed orally with test drug at doses such as 0, 1, 3, 9, 27 and 81 mg/kg. ED50 values (doses at which 50% of the animals would be expected to show response failure) were calculated by the moving average method [Thompson, W. R., Bact. Rev., 11, 115 (1947)].

With `O=C1Nc2ccc(Cl)c3c4c(n(c23)-c2ccccc21)CCNC4` [Example 3], the “Mouse CAR ED50 (avoidance ED50, dose at which 50% of the animals would be expected to show response failure)” value was found to be 45 mg/kg.

For `CCCCCCN1CCc2c(c3c(Cl)ccc4c3n2-c2ccccc2C(=O)N4)C1` [Example 36], the “Mouse CAR ED50 (avoidance ED50, dose at which 50% of the animals would be expected to show response failure)” value is 52 mg/kg. Take `CCN1CC[C@@H]2[C@@H](C1)c1cccc3c1N2c1ccc(Cl)cc1CN3` (relative stereo) [Example 105]: the “Mouse CAR ED50 (avoidance ED50, dose at which 50% of the animals would be expected to show response failure)” value turned out to be 24 mg/kg. Turning to `CN1CCc2c(c3cc(Cl)cc4c3n2-c2ccccc2C(=O)N4)C1` [Example 11], the “Mouse CAR ED50 (avoidance ED50, dose at which 50% of the animals would be expected to show response failure)” value was found to be 67 mg/kg. With `O=C1Nc2cccc3c4c(n(c23)-c2ccccc21)CCNC4` [Example 2, 1,2,3,4-tetrahydropyrido[4',3':2,3]indolo[1,7-ab][1,4]benzodiazepin-9(8H)-one] the figure was 39 mg/kg; with `CN1CCc2c(c3cc(Cl)cc4c3n2-c2ccc(Cl)cc2C(=O)N4)C1` [Example 14], 31 mg/kg; with `CCN1CC[C@@H]2[C@@H](C1)c1c(Cl)ccc3c1N2c1ccccc1CN3` (relative stereo) [Example 102], 5.8 mg/kg.

Take `Cc1ccc2c(c1)CNc1cc(Cl)cc3c1N2[C@@H]1CCN(CCc2ccccc2)C[C@@H]31` (relative stereo) [Example 113]: the “Mouse CAR ED50 (avoidance ED50, dose at which 50% of the animals would be expected to show response failure)” value came to 3.5 mg/kg. With `CN1CCc2c(c3cccc4c3n2-c2ccc(Cl)cc2C(=O)N4)C1` [Example 12] the figure was 12 mg/kg.

`CCCCCCN1CCc2c(c3c(Cl)ccc4c3n2-c2ccc(C)cc2C(=O)N4)C1` [Example 41]: the “Mouse CAR ED50 (avoidance ED50, dose at which 50% of the animals would be expected to show response failure)” value was more than 81 mg/kg. With `CN1CC[C@@H]2[C@@H](C1)c1cccc3c1N2c1ccccc1CN3` (relative stereo) [Example 97] the figure was 9.0 mg/kg. With `Cc1ccc2c(c1)C(=O)Nc1ccc(Cl)c3c4c(n-2c13)CCN(C)C4` [Example 19], the “Mouse CAR ED50 (avoidance ED50, dose at which 50% of the animals would be expected to show response failure)” value is recorded as more than 81 mg/kg. Consider `CN1CC[C@@H]2[C@@H](C1)c1cc(Cl)cc3c1N2c1ccc(Cl)cc1CN3` (relative stereo) [Example 100], for which the “Mouse CAR ED50 (avoidance ED50, dose at which 50% of the animals would be expected to show response failure)” value was 2.1 mg/kg. With `CN1CCc2c(c3cc(C(F)(F)F)cc4c3n2-c2ccccc2C(=O)N4)C1` [Example 18] the figure was more than 81 mg/kg; with `c1ccc2c(c1)CNc1cccc3c1N2[C@@H]1CCN(CC2CCCCC2)C[C@@H]31` (relative stereo) [Example 111], 3.3 mg/kg. With `Cc1ccc2c(c1)C(=O)Nc1cccc3c4c(n-2c13)CCNC4` [Example 6] the figure was 24 mg/kg; with `Clc1ccc2c(c1)CNc1cccc3c1N2[C@@H]1CCN(CCc2ccccc2)C[C@@H]31` (relative stereo) [Example 114], 5.2 mg/kg; with `CCCN1CCc2c(c3cc(Cl)cc4c3n2-c2ccccc2C(=O)N4)C1` [Example 34], 13.6 mg/kg. With `CCCCCCN1CC[C@@H]2[C@@H](C1)c1cc(Cl)cc3c1N2c1ccc(C)cc1CN3` (relative stereo) [Example 108] the figure was 2.5 mg/kg; with `O=C1Nc2cccc3c4c(n(c23)-c2ccc(Cl)cc21)CCNC4` [Example 7], 25 mg/kg. Consider `Cc1ccc2c(c1)C(=O)Nc1cc(Cl)cc3c4c(n-2c13)CCN(CCc1ccccc1)C4` [Example 16], for which the “Mouse CAR ED50 (avoidance ED50, dose at which 50% of the animals would be expected to show response failure)” value was found to be 47 mg/kg. For the compound `CC(C)N1CCc2c(c3cccc4c3n2-c2ccccc2C(=O)N4)C1` [Example 31, 1,2,3,4-Tetrahydro-3-(2-propyl)pyrido[4',3':2,3]indolo[1,7-ab][1,4]benzodiazepin-9(8H)-one], the “Mouse CAR ED50 (avoidance ED50, dose at which 50% of the animals would be expected to show response failure)” value was found to be 23 mg/kg.
